Values after ≈ are worked out from the molar mass of the structure shown. Values joined by “and” are separate entries in the source; they are usually repeats but may differ in a detail not shown here. Identical values can stand only once. Like-named read-outs stand apart in the source and are kept apart here. Marks after values point to notes of the source that are not given here. Each block holds one molecule with its values, some of them ahead of it.
Key:
[1] = true pKa of the compounds (commercial pKa instruments / literature); assay type: physicochemical; conditions: pION unpublished data (footnote f)
From the text: For ionizable molecules in dilute solutions (where salt precipitation may be ignored), when the log (logarithm) of the measured solubility is plotted vs. pH, the curve is bilinear, with one segment having a zero slope and the other segment having a unit slope (positive for acids and negative for bases). […]. In a simple aqueous equilibrium system, the pH where the asymptotes of the horizontal and diagonal segments intersect is equal to the pKa of the solute. Under such ideal circumstances, it is possible to determine the pKa and the intrinsic aqueous solubility, So, of the compound from the crossing of the segments [Z. T. Chowhan, J. Pharm. Sci. 1978, 67, 1257-1260; W. H. Streng, H. G. H. Tan, Int. J. Pharm. 1985, 25, 135-145]. Such pKa values can be directly measured by commercially-available devices [C. D. Bevan, A. P. Hill, D. P. Reynolds, Patent Cooperation Treaty, WO 99/13328, Mar. 18, 1999; Sirius Analytical Instruments Ltd., UK].
(2) Also, a novel and simple computational method is developed to extract the aqueous intrinsic solubilities of drug molecules from data altered by DMSO-drug binding, or drug-drug aggregation reactions, or drug reactions with non-ionizable excipients, using the difference between the apparent pKa measured by the analytical device and the true pKa measured by analytical devices available commercially (e.g., from Sirius Analytical Instruments Ltd., Forest Row, E. Sussex, UK).
We discovered that if one determines the pKa^APP (in the presence of the DMSO effect) in the solubility assay, and subtracts from it the true pKa (determined using commercial instruments such as those from Sirius, UK), the difference, when subtracted from the logarithm of the apparent (DMSO-distorted) solubility, So^APP, yields the true aqueous solubility constant:
Since the pKas of the studied compounds are known (Table 2), it was possible to calculate the pKa shifts (Δ values in Table 1).

[2] = solubility-pH by aqueous dilution method, 96-well UV; assay type: physicochemical; conditions: kinetic from dmso stock
[3] = true aqueous intrinsic solubility corrected from pKa shifts; assay type: physicochemical; conditions: for solubility: aqueous buffer, kinetic from dmso stock; for log So (corrected): log of μg/mL, horizontal asymptote of dashed curve in FIG. 8
[4] = apparent pKa from fitted log S vs. pH curve; assay type: physicochemical; conditions: saturated solutions; for pKa shift Δ (apparent pKa minus true pKa) / pKa shift Δ: DMSO-containing saturated solutions (FIG. 8); for pKa shift Δ (apparent pKa minus true pKa): read-out: pKa shift Δ = pKa^APP − pKa; for pKa shift Δ: pKa shift Δ = pKa^APP − pKa, heading: pKa shift Δ = pKa^APP − pKa
[5] = no DMSO, cited from earlier work; for Shake-Flask So: literature / private correspondence
[6] = pH 3
[7] = true pKa; literature sources (footnotes a, b, h); cited from earlier work
[8] = literature (footnotes a, b); cited from earlier work
[9] = intrinsic solubility by pSOL Model 3 acid-base titrator; assay type: physicochemical; conditions: pION unpublished data (footnote f)
Method: Solubility determinations are illustrated with 15 sparingly-soluble generic, mostly-ionizable drugs (FIG. 1), covering about three orders of magnitude in solubilities, with the lowest value being about 0.1 μg/mL (terfenadine at high pH). The ionizable bases include amiloride, amitriptyline, chlorpromazine, miconazole, nortriptyline, phenazopyridine, propranolol, and terfenadine. […] Piroxicam was picked as an example of an ampholyte, and griseofulvin as an example of a non-ionizable molecule. The results of the solubility measurements were compared to literature equilibrium solubility-pH values from reliable sources, and to values determined by the pSOL Model 3 (pION) acid-base titrator [A. Avdeef, C. M. Berger, C. Brownell, Pharm . Res. 2000, 17, 85-89].

[10] = solubility-pH by cosolvent method (50% v/v 1-propanol), 96-well UV; assay type: physicochemical; conditions: universal buffer solution, aqueous buffer, kinetic from dmso stock, 0.26% v/v DMSO, read-out: So^APP (apparent intrinsic solubility)
Method: The “sample” track on the left side of FIG. 4a depicts a series of steps leading up to the taking of the sample spectrum in a water-cosolvent solution. A known quantity of sample (37) is added in a known volume of the universal buffer solution of known pH (38), the amount of said sample being sufficient to cause precipitation to occur in the formed saturated solution (39). After waiting a period of time to allow the saturated solution to reach a desired steady state, the solution is filtered (40) to remove the solid, and obtain a clear solution (41).
A volume Y of a water-miscible cosolvent 42 is added to a volume Z of solution 41 to produce a new solution 43, in which the compound is diluted by Z/(Y+Z), from its concentration in solution 41. The spectrum of solution 43 is then immediately taken by the UV spectrophotometer (44), to minimize evaporation of the water-cosolvent solution. The mathematical treatment of the spectral data yields the area-under-the-curve of the filtered cosolvent sample solution (43), AUCS^COS. […]
18. As soon as the solutions are mixed in step 17, the robot transfers 5 μL from the diluted sample stock solution (using the 20 μL tips) to the blank solutions whose spectra had just been read in step 16: 14→17 (Sd→U). […]
The solubility is calculated according to equation (8). The results for phenazopyridine stated in Table 2 were determined by the cosolvent method.

[11] = literature (Roseman, Yalkowsky 1973); cited from earlier work
[12] = universal buffer solution, 0.5% v/v DMSO, 4 h shaking, read-out: So^APP (apparent intrinsic solubility)
[13] = saturated pH-buffered aqueous solution (universal buffer), read-out: corrected So (intrinsic solubility corrected for drug-DMSO/drug-aggregate effects)
[14] = pKa (I = 0.012 M, 50 vol % CH3CN)
[15] = read-out: corrected So (intrinsic solubility corrected for drug-DMSO/drug-aggregate effects)

Molecule: OB(O)O [Boric Acid, boric acid]
- pKa (physchem; pH 3, pKa (I = 0.020M)): 9.13

Molecule: O=C(O)CO [Glycolic Acid, glycolic acid]
- pKa (physchem; [14]): 4.56

Molecule: O=S(=O)(O)CCN1CCN(CCO)CC1 [HEPES, 4-(2-hydroxyethyl)-1-piperazineethanesulfonic acid]
- pKa (I = 0.020M) [6]: 7.48

Molecule: O=S(=O)(O)CCN1CCOCC1 [MES monohydrate, 4-morpholine-ethanesulfonic acid]
- pKa (physchem; pH 3, pKa (I = 0.020M)): 6.08
- pKa (physchem; [14]): 6.24

Molecule: NCCS(=O)(=O)O [Taurine, 2-aminoethanesulfonic acid]
- pKa (physchem; [14]): 8.95

Molecule: NS(=O)(=O)c1cc(C(=O)O)c(NCc2ccco2)cc1Cl [furosemide]
- pSOL So [8]: 5.9^b μg/mL
- Shake-Flask So [5]: 12.0^b μg/mL

Molecule: COC1=CC(=O)C[C@@H](C)[C@]12Oc1c(Cl)c(OC)cc(OC)c1C2=O [griseofulvin]
- solubility at 4 h [2, 12]: 37.6 µg/mL (≈ 107 µM)
- solubility [3, 13]: 20.2 µg/mL
- pKa [7]: non-
- Shake-Flask So [5]: 9^d μg/mL

Molecule: CNCCC=C1c2ccccc2CCc2ccccc21 [nortriptyline]
- solubility at 4 h ([2]; universal buffer solution, in 0.5% v/v DMSO, read-out: solubility): > 98 µg/mL

Molecule: prostaglandin F2α
- pKa shift Δ = pKa^APP − pKa [11]: Δ < or = 0

The next lines start with results.

- pKa [1]: 4.16
- solubility at 4 h [2, 12]: 33.3 µg/mL (≈ 193 µM)
- solubility [3, 13]: 20.2 µg/mL
- pKa shift Δ (apparent pKa minus true pKa) [4]: > 0
Molecule: O=C(O)c1ccc2ccccc2c1 [2-naphthoic acid]
- Shake-Flask So [5]: 22.4^g μg/mL

- solubility at 4 h [2, 12]: 56.9 µg/mL (≈ 205 µM)
- solubility [3, 13]: 3 µg/mL
- pKa shift Δ [4]: < 0
Molecule: CN(C)CCC=C1c2ccccc2CCc2ccccc21 [amitriptyline]
- pKa [7]: 9.45^a
- pSOL So [8]: 2.0^a μg/mL
- Shake-Flask So [5]: 2.0^a μg/mL

- solubility at 4 h [2, 12]: 19.4 µg/mL (≈ 60.8 µM)
- solubility [3, 15]: 3.4 µg/mL
- log So (corrected) [3]: 0.528
Molecule: CN(C)CCCN1c2ccccc2Sc2ccc(Cl)cc21 [chlorpromazine]

- solubility at 4 h [2, 12]: 22.6 µg/mL (≈ 76.3 µM)
- solubility [3, 13]: 3.8 µg/mL
Molecule: O=C(O)Cc1ccccc1Nc1c(Cl)cccc1Cl [diclofenac]
- pSOL So [8]: 0.8^b μg/mL
- Shake-Flask So [5]: 0.6^b μg/mL

- solubility at 4 h [2, 12]: 7.2 µg/mL (≈ 20.1 µM)
- solubility [3, 13]: 4.1 µg/mL
Molecule: COc1ccc2c(c1)c(CC(=O)O)c(C)n2C(=O)c1ccc(Cl)cc1 [indomethacin]
- pSOL So [8]: 2.0^a μg/mL
- Shake-Flask So [5]: 2.0 µg/mL and 1 µg/mL

- pKa [1]: 6.07
- solubility at 4 h [2, 12]: 11.1 µg/mL (≈ 26.7 µM)
- solubility [3, 13]: 1.6 µg/mL
- pSOL So [9]: 0.7^f μg/mL
- pKa shift Δ (apparent pKa minus true pKa) [4]: < 0
Molecule: Clc1ccc(COC(Cn2ccnc2)c2ccc(Cl)cc2Cl)c(Cl)c1 (stereo not drawn) [miconazole]

- pKa [1]: 5.15
- solubility at 4 h [10]: 12.2 µg/mL (≈ 57.2 µM)
- solubility ([3]; saturated pH-buffered aqueous solution (universal buffer), from So^APP in 0.26% v/v DMSO, cosolvent method, read-out: corrected So (intrinsic solubility corrected for drug-DMSO/drug-aggregate effects)): 12.2 µg/mL
- pSOL So [9]: 14.3^f μg/mL
- pKa shift Δ [4]: ≥ 0
- pKa ([4]; saturated solutions containing 0.26% v/v DMSO, read-out: apparent pKa (pKa^APP)): 5.83
Molecule: Nc1ccc(/N=N/c2ccccc2)c(N)n1 [phenazopyridine]

- solubility at 4 h [2, 12]: 10.5 µg/mL (≈ 31.7 µM)
- solubility [3, 15]: 1.1 µg/mL
- log So (corrected) [3]: 0.041
- pKa ([4]; 0.5% v/v DMSO, solid curve in FIG. 8, read-out: apparent pKa (pKa^APP)): 6.05
- pKa shift Δ [4]: 0.98
Molecule: CN1C(C(=O)Nc2ccccn2)=C(O)c2ccccc2S1(=O)=O [piroxicam]
- pKa deduced from literature solubility data ([5]; Jinno et al.): 5.63
- Shake-Flask So [5]: 9.1^i μg/mL and 8-16^j μg/mL

- pKa [1]: 3.01
- solubility at 4 h [2, 12]: 4.6 µg/mL (≈ 16.1 µM)
- solubility [3, 13]: 0.7 µg/mL
- pSOL So [9]: 0.6^f μg/mL
- pKa shift Δ (apparent pKa minus true pKa) [4]: > 0
Molecule: CCCN(CCC)S(=O)(=O)c1ccc(C(=O)O)cc1 [probenecid]

- solubility at 4 h ([2]; aqueous buffer, in 0.5% v/v DMSO, read-out: solubility): ~100 µg/mL (≈ 386 µM)
Molecule: CC(C)NCC(O)COc1cccc2ccccc12 (stereo not drawn) [propranolol]

- pKa [1]: 9.53
- solubility at 4 h [2, 12]: 4.4 µg/mL (≈ 9.33 µM)
- solubility ([3]; at high pH, read-out: solubility (lowest value)): ~0.1 µg/mL
- solubility [3, 13]: 0.1 µg/mL
- pSOL So [9]: 0.1^f μg/mL
- pKa shift Δ (apparent pKa minus true pKa) [4]: < 0
Molecule: CC(C)(C)c1ccc(C(O)CCCN2CCC(C(O)(c3ccccc3)c3ccccc3)CC2)cc1 (stereo not drawn) [terfenadine]

From patent US6569686B2, “Measurement of solubility-pH profiles” (Pion, Inc., priority 2000, dated 2003)
